A value given as a limit tells only on which side of the number the result lay.

The target of this assay is T1, human apelin receptor (APJ, APLNR) (Homo sapiens, UniProt P35414).
T1 construct: host or cells: Chinese hamster ovary (CHO) cells, stably integrated receptor
T1 sequence (P35414 1-380): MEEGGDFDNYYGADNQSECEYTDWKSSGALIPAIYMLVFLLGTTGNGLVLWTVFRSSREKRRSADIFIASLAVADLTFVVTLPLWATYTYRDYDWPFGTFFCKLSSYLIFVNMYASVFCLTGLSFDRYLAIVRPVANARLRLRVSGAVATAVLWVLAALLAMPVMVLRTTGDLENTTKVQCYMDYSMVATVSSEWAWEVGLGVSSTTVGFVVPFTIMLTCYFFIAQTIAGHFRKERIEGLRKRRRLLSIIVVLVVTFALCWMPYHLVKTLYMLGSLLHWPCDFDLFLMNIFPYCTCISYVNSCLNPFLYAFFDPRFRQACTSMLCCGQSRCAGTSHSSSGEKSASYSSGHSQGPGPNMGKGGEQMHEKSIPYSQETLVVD
The assay can be described thus: cell-based cAMP assay (TR-FRET) in Chinese hamster ovary cells expressing the apelin receptor. Conditions: EC50 = 50% of control (apelin-13, 1 nM) response; cAMP in CHO cells, 0.5 h incubation; read-out: Potency Category. The protocol: This example illustrates the biological activity of various compounds tested against the APJ receptor.
Commercially available cell lines were used to screen chemical libraries to identify compounds that potently and selectively activated the human apelin receptor. The assays disclosed herein were performed using cell lines from DiscoveX, Inc.
Biological activity was determined to the cell-based assay. This assay detects activation of the receptor by reporting on intracellular cyclic adenosine monophosphate (cAMP) level. Chinese hamster ovary cells engineered to express the stably integrated human appellant receptor (APJ, AGTRL-one, APLNR), pleaded into the wells of the microtiter plate. Cells were stimulated with […] to increase intracellular cyclic AMP. Immediately following, compounds were added to the range of final concentrations 0.0-100 μM, in DMSO (not to exceed a final DMSO concentration greater than 1% v/v), and allowed to incubate with the cells for 0.5 h. At the end of the incubation, cells were lysed to stop APJ signaling and cAMP was quantified using a commercially available competitive immunoassay kit that applies homogenous time-resolved florescence energy transfer (TR-FRET). The assay is based on the competition between a europium (Eu) chelate-labeled cAMP donor tracer and cellular cAMP for binding sites on a cAMP-specific monoclonal antibody labeled with an acceptor fluorophore. When antibodies are bound to the cAMP tracer light emissions at 320 nm stimulate the energy transfer from the donor to the acceptor, which in turn emits light at 665 nm. In the presence of competitive unlabeled cAMP (derived from the activity of the receptor or forskolin-stimulated production of cAMP), the labelled cAMP tracer is dissociated from the cAMP antibody, resulting in a loss of FRET signal. The amount of light emitted by the FRET is inversely proportional to the cAMP generated by the cell/receptor system. Potency and efficacy at APJ are reported in reference to the canonical APJ receptor agonist apelin-13 when tested at 1 nM.
Compound competency is reported as the effective concentration required to effect 50% (EC 50) of the control (apelin—13, 1 nM) response in micromole are (μM) units. Compound efficacy (% response) is reported as a percentage of the maximal apein-13 response at 1 nM (control). Potencies were calculated by fitting a four-point logistic curve to concentration response consisting of at least 10 discrete data points spanning effective range of the compounds in the cell-based assay that measures cAMP. In Table 1, the Potency Categories are A, B, C and D. Category A EC50>500 nM; Category B 200<EC50<500 nM; Category C 100<EC50<200 nM; Category D<100 nM.
Background: cAMP levels reflect the balance of adenylyl cyclase and phosphodiesterase activity.

As to `COC(=O)c1cc(C(C)(C)C)n2nc(C)c(-c3ccccc3)c2n1` [Compound 1, methyl 7-(tert-butyl)-2-methyl-3-phenyl-8-hydropyrazolo[1,5-a]pyrimidine-5-carboxylate], the EC50 was above 500 nM.
For `Cc1nn2c(C(C)(C)C)cc(C(=O)O)nc2c1-c1ccccc1` [Compound 2, 7-(tert-butyl)-2-methyl-3-phenyl-8-hydropyrazolo[1,5-a]pyrimidine-5-carboxylic acid], the EC50 was above 500 nM.
As for `Cc1nn2c(C(C)C)cc(C(=O)O)nc2c1-c1ccccc1` [Compound 3, 2-methyl-7-(methylethyl)-3-phenyl-8-hydropyrazolo[1,5-a]pyrimidine-5-carboxylic acid], the EC50 is above 500 nM.
Then `Cc1nn2c(C)cc(C(=O)O)nc2c1-c1ccccc1` [Compound 4, 2,7-dimethyl-3-phenyl-8-hydropyrazolo[1,5-a]pyrimidine-5-carboxylic acid], with above 500 nM.
The result for `Cc1ccc(-c2c(C)nn3c(C(C)C)cc(C(=O)O)nc23)cc1` [Compound 5, 2-methyl-7-(methylethyl)-3-(4-methylphenyl)-8-hydropyrazolo[1,5-a]pyrimidine-5-carboxylic acid] reads above 500 nM; that for `Cc1nn2c(C3CC3)cc(C(=O)O)nc2c1-c1ccccc1` [Compound 6, 7-cyclopropyl-2-methyl-3-phenyl-8-hydropyrazolo[1,5-a]pyrimidine-5-carboxylic acid], above 500 nM.
The result for `CC(C)c1cc(C(=O)O)nc2c(-c3ccccc3)cnn12` [Compound 7, 7-(methylethyl)-3-phenyl-8-hydropyrazolo[1,5-a]pyrimidine-5-carboxylic acid] reads above 500 nM.
For the compound `Cc1nn2c(C(C)C)cc(C(=O)O)nc2c1-c1ccc(F)cc1` [Compound 8, 3-(4-fluorophenyl)-2-methyl-7-(methylethyl)-8-hydropyrazolo[1,5-a]pyrimidine-5-carboxylic acid], the EC50 is above 500 nM.
The result for `COc1ccc(-c2c(C)nn3c(C(C)C)cc(C(=O)O)nc23)cc1` [Compound 9, 3-(4-methoxyphenyl)-2-methyl-7-(methylethyl)-8-hydropyrazolo[1,5-a]pyrimidine-5-carboxylic acid] reads above 500 nM; that for `COc1ccc(-c2c(C)nn3c(C(=O)O)cc(C(C)C)nc23)cc1` [Compound 10, 3-(4-methoxyphenyl)-2-methyl-5-(methylethyl)-8-hydropyrazolo[1,5-a]pyrimidine-7-carboxylic acid], above 500 nM.
Then `CCOC(=O)c1cc(C(C)C)n2nc(C3CC3)c(-c3ccccc3)c2n1` [Compound 11, ethyl 2-cyclopropyl-7-(methylethyl)-3-phenyl-8-hydropyrazolo[1,5-a]pyrimidine-5-carboxylate], with above 500 nM; and `CC(C)c1cc(C(=O)O)nc2c(-c3ccccc3)c(C3CC3)nn12` [Compound 12, 2-cyclopropyl-7-(methylethyl)-3-phenyl-8-hydropyrazolo[1,5-a]pyrimidine-5-carboxylic acid], with above 500 nM; and `CCc1nn2c(C(C)C)cc(C(=O)O)nc2c1-c1ccccc1` [Compound 13, 2-ethyl-7-(methylethyl)-3-phenyl-8-hydropyrazolo[1,5-a]pyrimidine-5-carboxylic acid], with above 500 nM.
Then `Cc1nn2c(C(C)C)cc(C(N)=O)nc2c1-c1ccccc1` [Compound 14, 2-methyl-7-(methylethyl)-3-phenyl-8-hydropyrazolo[1,5-a]pyrimidine-5-carboxamide], with above 500 nM; and `CNC(=O)c1cc(C(C)C)n2nc(C)c(-c3ccccc3)c2n1` [Compound 15, N-methyl[2-methyl-7-(methylethyl)-3-phenyl(8-hydropyrazolo[1,5-a]pyrimidin-5-yl)]carboxamide], with above 500 nM; and `Cc1nn2c(C(C)C)cc(C(=O)N(C)C)nc2c1-c1ccccc1` [Compound 16, N,N-dimethyl[2-methyl-7-(methylethyl)-3-phenyl(8-hydropyrazolo[1,5-a]pyrimidin-5-yl)]carboxamide], with above 500 nM.
`CCOC(=O)c1cc(C(C)C)n2nc(C)c(-c3cccc(OC)c3)c2n1` [Compound 18, ethyl 3-(3-methoxyphenyl)-2-methyl-7-(methylethyl)-8-hydropyrazolo[1,5-a]pyrimidine-5-carboxylate]: the EC50 was above 500 nM.
Then `CCOC(=O)c1cc(C(C)C)n2nc(C)c(-c3ccccc3Cl)c2n1` [Compound 19, ethyl 3-(2-chlorophenyl)-2-methyl-7-(methylethyl)-8-hydropyrazolo[1,5-a]pyrimidine-5-carboxylate], with above 500 nM; and `Cc1ccccc1-c1c(C)nn2c(C(C)C)cc(C(=O)O)nc12` [Compound 20, 2-methyl-7-(methylethyl)-3-(2-methylphenyl)-8-hydropyrazolo[1,5-a]pyrimidine-5-carboxylic acid], with 100 to 200 nM; and `Cc1nn2c(C(C)C)cc(C(=O)O)nc2c1-c1ccccc1Cl` [Compound 21, 3-(2-chlorophenyl)-2-methyl-7-(methylethyl)-8-hydropyrazolo[1,5-a]pyrimidine-5-carboxylic acid], with above 500 nM.
Then `COc1cccc(-c2c(C)nn3c(C(C)C)cc(C(=O)O)nc23)c1` [Compound 22, 3-(3-methoxyphenyl)-2-methyl-7-(methylethyl)-8-hydropyrazolo[1,5-a]pyrimidine-5-carboxylic acid], with above 500 nM; and `CCOC(=O)c1cc(C(C)C)n2nc(C)c(-c3ccccc3F)c2n1` [Compound 23, ethyl 3-(2-fluorophenyl)-2-methyl-7-(methylethyl)-8-hydropyrazolo[1,5-a]pyrimidine-5-carboxylate], with above 500 nM; and `CC1=NC2C(C(C)C)=CC(C(=O)O)=NC2=C1c1ccccc1F` (stereo not drawn) [Compound 24, 3-(2-fluorophenyl)-2-methyl-7-(methylethyl)-8-hydropyrazolo[1,5-a]pyrimidine-5-carboxylic acid], with above 500 nM.
The result for `CCOC(=O)c1cc(C(C)C)n2nc(C)c(-c3cccc(F)c3)c2n1` [Compound 25, ethyl 3-(3-fluorophenyl)-2-methyl-7-(methylethyl)-8-hydropyrazolo[1,5-a]pyrimidine-5-carboxylate] reads above 500 nM.
Take `Cc1nn2c(C(C)C)cc(C(=O)O)nc2c1-c1cccc(F)c1` [Compound 26, 3-(3-fluorophenyl)-2-methyl-7-(methylethyl)-8-hydropyrazolo[1,5-a]pyrimidine-5-carboxylic acid]: the EC50 was above 500 nM.
Then `CCOC(=O)c1cc(C(C)C)n2nc(C)c(-c3cccc(C)c3)c2n1` [Compound 27, ethyl 2-methyl-7-(methylethyl)-3-(3-methylphenyl)-8-hydropyrazolo[1,5-a]pyrimidine-5-carboxylate], with above 500 nM; and `Cc1cccc(-c2c(C)nn3c(C(C)C)cc(C(=O)O)nc23)c1` [Compound 28, 2-methyl-7-(methylethyl)-3-(3-methylphenyl)-8-hydropyrazolo[1,5-a]pyrimidine-5-carboxylic acid], with above 500 nM; and `CCOC(=O)c1cc(C(C)C)n2nc(C)c(-c3ccccc3OC)c2n1` [Compound 29, ethyl 3-(2-methoxyphenyl)-2-methyl-7-(methylethyl)-8-hydropyrazolo[1,5-a]pyrimidine-5-carboxylate], with above 500 nM.
Then `CCOC(=O)c1cc(C(C)C)n2nc(C)c(-c3cccc(Cl)c3)c2n1` [Compound 30, ethyl 3-(3-chlorophenyl)-2-methyl-7-(methylethyl)-8-hydropyrazolo[1,5-a]pyrimidine-5-carboxylate], with above 500 nM.
Then `COc1ccccc1-c1c(C)nn2c(C(C)C)cc(C(=O)O)nc12` [Compound 31, 3-(2-methoxyphenyl)-2-methyl-7-(methylethyl)-8-hydropyrazolo[1,5-a]pyrimidine-5-carboxylic acid], with above 500 nM.

The values are drawn from patent publication US12006321B2, “Substituted pyrazolo[1,5-a]pyrimidines as apelin receptor agonists” (Sanford Burnham Prebys Medical Discovery Institute, priority 2017, dated 2024).
